melting point	Structure (SMILES)
229.2 to 234.5 °C	COc1cccc(CNC(=O)c2cc(-c3ccco3)nc(N)n2)c1 [Example 3, 2-Amino-6-(2-furyl)-N-(3-methoxybenzyl)pyrimidine-4-carboxamide]
202.4 to 202.9 °C	CN(C)c1ccc(CNC(=O)c2cc(-c3ccco3)nc(N)n2)cc1 [Example 9, 2-Amino-6-(2-furyl)-N-(4-dimethylaminobenzyl)pyrimidine-4-carboxamide]
170.6 to 170.7 °C	Nc1nc(C(=O)NCc2cccc(C(F)(F)F)c2)cc(-c2ccco2)n1 [Example 16, 2-Amino-N-(3-trifluoromethylbenzyl)-6-(2-furyl)pyrimidine-4-carboxamide]
290.9 to 291.3 °C	Nc1nc(C(=O)NCc2nc3ccccc3[nH]2)cc(-c2ccco2)n1 [Example 17, 2-Amino-N-(1H-benzimidazol-2-ylmethyl)-6-(2-furyl)pyrimidine-4-carboxamide]
195.5 to 197.5 °C	Nc1nc(C(=O)NCc2ncccc2CN2CCOCC2)cc(-c2ccco2)n1 [Example 22, 2-Amino-6-(2-furyl)-N-(3-(4-morpholinylmethyl)pyridin-2-ylmethyl)pyrimidine-4-carboxamide]
178 to 178.1 °C	COc1nc(C)ccc1CNC(=O)c1cc(-c2ccco2)nc(N)n1 [Example 29, 2-Amino-6-(2-furyl)-N-(2-methoxy-6-methylpyridin-3-ylmethyl)pyrimidine-4-carboxamide]
209.5 to 210.3 °C	Cn1ccnc1CNC(=O)c1cc(-c2ccco2)nc(N)n1 [Example 34, 2-Amino-6-(2-furyl)-N-(1-methyl-1H-imidazol-2-ylmethyl)pyrimidine-4-carboxamide]
170.1 to 170.5 °C	Nc1nc(C(=O)NCc2ccc3[nH]ccc3c2)cc(-c2ccco2)n1 [Example 35, 2-Amino-6-(2-furyl)-N-(5-indolylmethyl)pyrimidine-4-carboxamide]
191.8 to 192.2 °C	Cc1cc(CNC(=O)c2cc(-c3ccco3)nc(N)n2)ccc1[N+](=O)[O-] [Example 37, 2-Amino-6-(2-furyl)-N-(3-methyl-4-nitrobenzyl)pyrimidine-4-carboxamide]
148 to 148.4 °C	COCc1ccc(C)c(CNC(=O)c2cc(-c3ccco3)nc(N)n2)n1 [Example 46, 2-Amino-6-(2-furyl)-N-(6-methoxymethyl-3-methylpyridin-2-ylmethyl)pyrimidine-4-carboxamide]
193.8 to 194 °C	Nc1nc(C(=O)NCc2ccc3cc[nH]c3c2)cc(-c2ccco2)n1 [Example 48, 2-Amino-6-(2-furyl)-N-(6-indolylmethyl)pyrimidine-4-carboxamide]
230.7 to 230.9 °C	Nc1nc(C(=O)NCc2cccc3cccnc23)cc(-c2ccco2)n1 [Example 49, 2-Amino-6-(2-furyl)-N-(quinolin-8-ylmethyl)pyrimidine-4-carboxamide]
171.2 to 172.1 °C	Nc1nc(C(=O)NCc2ccc3nsnc3c2)cc(-c2ccco2)n1 [Example 53, 2-Amino-N-([2,1,3]benzothiadiazol-5-ylmethyl)-6-(2-furyl)pyrimidine-4-carboxamide]
180.9 to 181.4 °C	Nc1nc(C(=O)NCc2ccc3ccccc3n2)cc(-c2ccco2)n1 [Example 57, 2-Amino-6-(2-furyl)-N-(quinolin-2-ylmethyl)pyrimidine-4-carboxamide]
219.9 to 222.3 °C	Nc1nc(C(=O)NCc2nc3ccccc3s2)cc(-c2ccco2)n1 [Example 58, 2-Amino-N-(benzothiazol-2-ylmethyl)-6-(2-furyl)pyrimidine-4-carboxamide]
154.5 to 156.9 °C	Cc1ccc(COCC2CC2)nc1CNC(=O)c1cc(-c2ccco2)nc(N)n1 [Example 59, 2-Amino-N-(6-cyclopropylmethoxymethyl-3-methylpyridin-2-ylmethyl)-6-(2-furyl)pyrimidine-4-carboxamide]
131 to 131.1 °C	Nc1nc(C(=O)NCCCc2ccccc2)cc(-c2ccco2)n1 [Example 83, 2-Amino-6-(2-furyl)-N-(3-phenylpropyl)pyrimidine-4-carboxamide]

The next lines start with the compound.

Structure (SMILES)	melting point
Nc1nc(C(=O)NC2CCc3ccccc32)cc(-c2ccco2)n1 (stereo in doubt) [Example 78, (R)-2-Amino-6-(2-furyl)-N-(1-indanyl)pyrimidine-4-carboxamide]	126.7 to 127.2 °C
Nc1nc(C(=O)NC2CCc3ccccc32)cc(-c2ccco2)n1 (stereo in doubt) [Example 79, (S)-2-Amino-6-(2-furyl)-N-(1-indanyl)pyrimidine-4-carboxamide]	111.8 to 112.5 °C
Nc1nc(C(=O)N2CCCCC2)cc(-c2ccco2)n1 [Example 5, 1-(2-Amino-6-(2-furyl)pyrimidin-4-ylcarbonyl)piperidine]	139.5 to 143 °C
NC(=O)c1cc(-c2ccco2)nc(N)n1 [Example 8, 2-Amino-6-(2-furyl)pyrimidine-4-carboxamide]	218 to 219.8 °C
Cc1[nH]c2ccc(CNC(=O)c3cc(-c4ccco4)nc(N)n3)cc2c1C [Example 36, 2-Amino-N-(2,3-dimethylindol-5-ylmethyl)-6-(2-furyl)pyrimidine-4-carboxamide]	155.9 to 156 °C
Cc1cc2cc(CNC(=O)c3cc(-c4ccco4)nc(N)n3)ccc2[nH]1 [Example 40, 2-Amino-6-(2-furyl)-N-(2-methylindol-5-ylmethyl)pyrimidine-4-carboxamide]	105.6 to 105.7 °C
CC(C)NC(=O)OCc1cccc(CNC(=O)c2cc(-c3ccco3)nc(N)n2)n1 [Example 41, 6-(2-Amino-6-(2-furyl)pyrimidine-4-carboxamidomethyl)pyridin-2-ylmethyl isopropylcarbamate]	155.2 to 155.7 °C
C[C@H](NC(=O)c1cc(-c2ccco2)nc(N)n1)c1ccccc1 [Example 60, (S)-2-Amino-6-(2-furyl)-N-(1-phenylethyl)pyrimidine-4-carboxamide]	158.7 to 158.9 °C
C[C@@H](NC(=O)c1cc(-c2ccco2)nc(N)n1)c1ccccc1 [Example 63, (R)-2-Amino-6-(2-furyl)-N-(1-phenylethyl)pyrimidine-4-carboxamide]	158.8 to 159.1 °C
Nc1nc(C(=O)N2Cc3ccccc3C2)cc(-c2ccco2)n1 [Example 66, 2-(2-Amino-6-(2-furyl)pyrimidin-4-ylcarbonyl)-2,3-dihydro-1H-isoindole]	226.2 to 226.3 °C
Nc1nc(C(=O)N2CCc3ccccc3C2)cc(-c2ccco2)n1 [Example 71, 2-(2-Amino-6-(2-furyl)pyrimidin-4-ylcarbonyl)-1,2,3,4-tetrahydroisoquinoline]	193.3 to 193.6 °C
Nc1nc(C(=O)N2CCCc3ccccc32)cc(-c2ccco2)n1 [Example 72, 1-(2-Amino-6-(2-furyl)pyrimidin-4-ylcarbonyl)-1,2,3,4-tetrahydroquinoline]	203.8 to 204.5 °C
Nc1nc(C(=O)N2CCc3ccccc32)cc(-c2ccco2)n1 [Example 75, 1-(2-Amino-6-(2-furyl)pyrimidin-4-ylcarbonyl)-2,3-dihydroindole]	251.9 to 252.3 °C
CCCNC(=O)OCc1cccc(CNC(=O)c2cc(-c3ccco3)nc(N)n2)n1 [Example 85, 6-(2-Amino-6-(2-furyl)pyrimidine-4-carboxamidomethyl)pyridin-2-ylmethyl n-propylcarbamate]	151.6 to 155.7 °C

Source: patent publication US7875600B2, “Pyrimidine compounds as purine receptor antagonist” (Vernalis (R&D) Limited, priority 2004, dated 2011)
